Test results from patent US8759318B2, “Phosphoramidate derivatives of guanosine nucleoside compounds for treatment of viral infections” (Inhibitex, Inc., priority 2009, dated 2014).
Read-outs that look alike come from different tables or passages of the source.

Columns and labels:
in vitro = settings: human
[1] = tested on: HCV replicon (Genotype 1b); test: Luciferase genotype 1b replicon potency assay; settings: Hepatitis C virus
[2] = GETYPE1B, read-out: IC50 μM, HCV genotype 1b luciferase replicon, Renilla luciferase reporter

With `COc1nc(N)nc2c1ncn2C1O[C@H](COP(=O)(N[C@H](C(=O)OCC(C)(C)C)C(C)C)Oc2cc(C(C)(C)C)cc3ccc(C(C)(C)C)cc23)[C@@H](O)[C@@]1(C)O` (some centres unmarked) [Example 56] as the molecule, how does the CC50 (in vitro) read?
Its CC50 is 13 µM.

And the IC50 [1, 2]?
The IC50 was 2.1 µM.

Which CC50 (in vitro) does the source give for `COc1nc(N)nc2c1ncn2C1O[C@H](COP(=O)(N[C@H](C(=O)O[C@@H](C)c2ccccc2Br)C(C)C)Oc2cccc3ccccc23)[C@@H](O)[C@@]1(C)O` (stereo partly drawn) [Example 40, (2S)-((S)-1-(2-bromophenyl)ethyl) 2-((((2R,3R,4R)-5-(2-amino-6-methoxy-9H-purin-9-yl)-3,4-dihydroxy-4-methyltetrahydrofuran-2-yl)methoxy)(naphthalen-1-yloxy)phosphorylamino)-3-methylbutanoate] here?
Its CC50 is 44 µM.

What about the IC50 [1, 2] of the same molecule?
Its IC50 is 2.9 µM.

What does the source list for `CSc1nc(N)nc2c1ncn2C1O[C@H](COP(=O)(N[C@@H](C)C(=O)OCC(C)(C)C)Oc2cccc3ccccc23)[C@@H](O)[C@@]1(C)O` (stereo partly drawn) [Example 90, (2S)-neopentyl 2-((((2R,3R,4R)-5-(2-amino-6-(methylthio)-9H-purin-9-yl)-3,4-dihydroxy-4-methyltetrahydrofuran-2-yl)methoxy)(naphthalen-1-yloxy)phosphorylamino)propanoate]?
CC50 (in vitro): 41 µM; IC50 [1, 2]: 0.033 µM

With `COC(=O)[C@@H](C)c1ccc2cc(OP(=O)(N[C@H](C(=O)OCC(C)(C)C)C(C)C)OC[C@H]3OC(n4cnc5c(OC)nc(N)nc54)[C@](C)(O)[C@@H]3O)ccc2c1` (stereo partly drawn) [Example 48, (2S)-neopentyl 2-((((2R,3R,4R)-5-(2-amino-6-methoxy-9H-purin-9-yl)-3,4-dihydroxy-4-methyltetrahydrofuran-2-yl)methoxy) (6-((S)-1-methoxy-1-oxopropan-2-yl)naphthalen-2-yloxy)phosphorylamino)-3-methylbutanoate] as the molecule, how does the CC50 (in vitro) read?
Its CC50 is 29 µM.

What about the IC50 [1, 2] of the same molecule?
Its IC50 is 0.21 µM.

What does the source list for `CCOc1nc(N)nc2c1ncn2C1O[C@H](COP(=O)(N[C@@H](C)C(=O)OC2CCOCC2)Oc2cccc3ccccc23)[C@@H](O)[C@@]1(C)O` (stereo partly drawn) [Example 78, (2S)-tetrahydro-2H-pyran-4-yl 2-((((2R,3R,4R)-5-(2-amino-6-ethoxy-9H-purin-9-yl)-3,4-dihydroxy-4-methyltetrahydrofuran-2-yl)methoxy)(naphthalen-1-yloxy)phosphorylamino)propanoate]?
CC50 (in vitro): 47 µM; IC50 [1, 2]: 0.059 µM

With `COc1nc(N)nc2c1ncn2C1O[C@H](COP(=O)(N[C@@H](CCSC)C(=O)OCC(C)(C)C)Oc2cccc3ccccc23)[C@@H](O)[C@@]1(C)O` (some centres unmarked) [Example 60] as the molecule, how does the CC50 (in vitro) read?
The CC50 was 28 µM.

And the IC50 [1, 2]?
The IC50 was 0.06 µM.

What does the source list for `COC(=O)[C@@H](C)c1ccc2cc(OP(=O)(N[C@@H](C)C(=O)OCC(C)(C)C)OC[C@H]3OC(n4cnc5c(OC)nc(N)nc54)[C@](C)(O)[C@@H]3O)ccc2c1` (stereo partly drawn) [Example 28, (2S)-methyl 2-(6-((((2R,3R,4R)-5-(2-amino-6-methoxy-9H-purin-9-yl)-3,4-dihydroxy-4-methyltetrahydrofuran-2-yl)methoxy)((S)-1-(neopentyloxy)-1-oxopropan-2-ylamino)phosphoryloxy)naphthalen-2-yl)propanoate]?
CC50 (in vitro): 19 µM; IC50 [1, 2]: 0.023 µM

With `COc1nc(N)nc2c1ncn2C1O[C@H](COP(=O)(N[C@@H](C)C(=O)OCc2ccc(F)cc2F)Oc2cccc3ccccc23)[C@@H](O)[C@@]1(C)O` (stereo partly drawn) [Example 14, (2S)-2,4-difluorobenzyl 2-((((2R,3R,4R)-5-(2-amino-6-methoxy-9H-purin-9-yl)-3,4-dihydroxy-4-methyltetrahydrofuran-2-yl)methoxy)(naphthalen-1-yloxy)phosphorylamino)propanoate] as the molecule, how does the CC50 (in vitro) read?
The CC50 was 15 µM.

What about the IC50 [1, 2] of the same molecule?
Its IC50 is 0.04 µM.

With `COc1nc(N)nc2c1ncn2C1O[C@H](COP(=O)(N[C@@H](C)C(=O)OCc2ccc(F)cc2F)Oc2cccc3ncccc23)[C@@H](O)[C@@]1(C)O` (stereo partly drawn) [Example 30, (2S)-2,4-difluorobenzyl 2-((((2R,3R,4R)-5-(2-amino-6-methoxy-9H-purin-9-yl)-3,4-dihydroxy-4-methyltetrahydrofuran-2-yl)methoxy)(quinolin-5-yloxy)phosphorylamino)propanoate] as the molecule, how does the CC50 (in vitro) read?
Its CC50 is 110 µM.

And the IC50 [1, 2]?
The IC50 was 0.13 µM.

Which results are given for `COc1nc(N)nc2c1ncn2C1O[C@H](COP(=O)(N[C@@H](C)C(=O)OCC(C)(C)C)Oc2ccc3ncccc3c2)[C@@H](O)[C@@]1(C)O` (stereo partly drawn) [Example 33, (2S)-neopentyl 2-((((2R,3R,4R)-5-(2-amino-6-methoxy-9H-purin-9-yl)-3,4-dihydroxy-4-methyltetrahydrofuran-2-yl)methoxy)(quinolin-6-yloxy)phosphorylamino)propanoate]?
CC50 (in vitro): > 100 µM; IC50 [1, 2]: 0.26 µM

Which CC50 (in vitro) does the source give for `COC(=O)[C@@H](NP(=O)(OC[C@H]1OC(n2cnc3c(OC)nc(N)nc32)[C@](C)(O)[C@@H]1O)Oc1cccc2ccccc12)C(C)C` (stereo partly drawn) [Example 41, (2S)-methyl 2-((((2R,3R,4R)-5-(2-amino-6-methoxy-9H-purin-9-yl)-3,4-dihydroxy-4-methyltetrahydrofuran-2-yl)methoxy)(naphthalen-1-yloxy)phosphorylamino)-3-methylbutanoate] here?
The CC50 was 22 µM.

And the IC50 [1, 2]?
The IC50 was 0.38 µM.

What does the source list for `COc1nc(N)nc2c1ncn2C1O[C@H](COP(=O)(N[C@H](C(=O)OCC(C)(C)C)C(C)C)Oc2cccc3cccnc23)[C@@H](O)[C@@]1(C)O` (stereo partly drawn) [Example 53, (2S)-neopentyl 2-((((2R,3R,4R)-5-(2-amino-6-methoxy-9H-purin-9-yl)-3,4-dihydroxy-4-methyltetrahydrofuran-2-yl)methoxy)(quinolin-8-yloxy)phosphorylamino)-3-methylbutanoate]?
CC50 (in vitro): > 100 µM; IC50 [1, 2]: 0.88 µM

With `COc1nc(N)nc2c1ncn2C1O[C@H](COP(=O)(N[C@H](C(=O)OCc2ccccc2)C(C)C)Oc2cccc3ccccc23)C[C@@]1(C)O` (stereo partly drawn) [Example 99, benzyl (2S)-benzyl 2-((((2S,4R)-5-(2-amino-6-methoxy-9H-purin-9-yl)-4-hydroxy-4-methyltetrahydrofuran-2-yl)methoxy)(naphthalen-1-yloxy)phosphorylamino)-3-methylbutanoate] as the molecule, how does the CC50 (in vitro) read?
Its CC50 is 22 µM.

And the IC50 [1, 2]?
The IC50 was over 10 µM.

Which CC50 (in vitro) does the source give for `COc1nc(N)nc2c1ncn2C1O[C@H](COP(=O)(N[C@@H](C)C(=O)OC2CCOCC2)Oc2ccc3ncccc3c2)[C@@H](O)[C@@]1(C)O` (stereo partly drawn) [Example 34, (2S)-tetrahydro-2H-pyran-4-yl 2-((((2R,3R,4R)-5-(2-amino-6-methoxy-9H-purin-9-yl)-3,4-dihydroxy-4-methyltetrahydrofuran-2-yl)methoxy)(quinolin-6-yloxy)phosphorylamino)propanoate] here?
The CC50 was over 100 µM.

And the IC50 [1, 2]?
Its IC50 is 1.1 µM.

What does the source list for `COc1nc(N)nc2c1ncn2C1O[C@H](COP(=O)(N[C@H](C(=O)O[C@@H](C)c2ccc(Br)cc2)C(C)C)Oc2cccc3ccccc23)[C@@H](O)[C@@]1(C)O` (stereo partly drawn) [Example 39, (2S)-((S)-1-(4-bromophenyl)ethyl) 2-((((2R,3R,4R)-5-(2-amino-6-methoxy-9H-purin-9-yl)-3,4-dihydroxy-4-methyltetrahydrofuran-2-yl)methoxy)(naphthalen-1-yloxy)phosphorylamino)-3-methylbutanoate]?
CC50 (in vitro): 0.9 µM; IC50 [1, 2]: 2.2 µM

For `CNc1nc(N)nc2c1ncn2C1O[C@H](COP(=O)(N[C@@H](C)C(=O)OCC(C)(C)C)Oc2cccc3ccccc23)[C@@H](O)[C@@]1(C)O` (stereo partly drawn) [Example 81, (2S)-neopentyl 2-((((2R,3R,4R)-5-(2-amino-6-(methylamino)-9H-purin-9-yl)-3,4-dihydroxy-4-methyltetrahydrofuran-2-yl)methoxy)(naphthalen-1-yloxy)phosphorylamino)propanoate], which CC50 (in vitro) is on record?
Its CC50 is 48 µM.

What about the IC50 ([1]; read-out: IC50 μM) of the same molecule?
Its IC50 is 0.033 µM.

What does the source list for `COc1nc(N)nc2c1ncn2C1O[C@H](COP(=O)(N[C@H](C(=O)OC2CCCCC2)c2ccccc2)Oc2cccc3ccccc23)[C@@H](O)[C@@]1(C)O` (stereo partly drawn) [Example 67, (2S)-cyclohexyl 2-((((2R,3R,4R)-5-(2-amino-6-methoxy-9H-purin-9-yl)-3,4-dihydroxy-4-methyltetrahydrofuran-2-yl)methoxy)(naphthalen-1-yloxy)phosphorylamino)-2-phenylacetate]?
CC50 (in vitro): 22 µM; IC50 [1, 2]: 0.054 µM

What does the source list for `COC(=O)[C@@H](NP(=O)(OC[C@H]1OC(n2cnc3c(OC)nc(N)nc32)[C@](C)(O)[C@@H]1O)Oc1cccc2ccccc12)c1ccccc1` (some centres unmarked) [Example 64]?
CC50 (in vitro): > 100 µM; IC50 [1, 2]: 0.49 µM

Which CC50 (in vitro) does the source give for `COC(=O)[C@@H](C)c1ccc2cc(OP(=O)(N[C@@H](C)C(=O)OC3CCOCC3)OC[C@H]3OC(n4cnc5c(OC)nc(N)nc54)[C@](C)(O)[C@@H]3O)ccc2c1` (stereo partly drawn) [Example 29, (2S)-methyl 2-(6-((((2R,3R,4R)-5-(2-amino-6-methoxy-9H-purin-9-yl)-3,4-dihydroxy-4-methyltetrahydrofuran-2-yl)methoxy)((S)-1-oxo-1-(tetrahydro-2H-pyran-4-yloxy)propan-2-ylamino)phosphoryloxy)naphthalen-2-yl)propanoate] here?
Its CC50 is over 100 µM.

And the IC50 [1, 2]?
The IC50 was 0.11 µM.

Which CC50 (in vitro) does the source give for `COc1nc(N)nc2c1ncn2C1O[C@H](CO[P@](=O)(N[C@@H](C)C(=O)OCC(C)(C)C)Oc2cccc3ccccc23)[C@@H](O)[C@@]1(C)O` (single isomer, unassigned) [Example 22] here?
Its CC50 is 6 µM.

And the IC50 [1, 2]?
The IC50 was 0.019 µM.

What does the source list for `COc1nc(N)nc2c1ncn2C1O[C@H](COP(=O)(N[C@@H](C)C(=O)OC2CCOCC2)Oc2cccc3ccccc23)[C@@H](O)[C@@]1(C)O` (stereo partly drawn) [Example 26, (2S)-tetrahydro-2H-pyran-4-yl 2-((((2R,3R,4R)-5-(2-amino-6-methoxy-9H-purin-9-yl)-3,4-dihydroxy-4-methyltetrahydrofuran-2-yl)methoxy)(naphthalen-1-yloxy)phosphorylamino)propanoate]?
CC50 (in vitro): 130 µM; IC50 [1, 2]: 0.08 µM

For `COC(=O)[C@@H](C)c1ccc2cc(OP(=O)(N[C@@H](C)C(=O)OCc3ccc(F)cc3F)OC[C@H]3OC(n4cnc5c(OC)nc(N)nc54)[C@](C)(O)[C@@H]3O)ccc2c1` (stereo partly drawn) [Example 27, (2S)-2,4-difluorobenzyl 2-((((2R,3R,4R)-5-(2-amino-6-methoxy-9H-purin-9-yl)-3,4-dihydroxy-4-methyltetrahydrofuran-2-yl)methoxy)(6-((S)-1-methoxy-1-oxopropan-2-yl)naphthalen-2-yloxy)phosphorylamino)propanoate], which CC50 (in vitro) is on record?
Its CC50 is 28 µM.

What about the IC50 [1, 2] of the same molecule?
The IC50 was 0.055 µM.
